Experimental data published in ChEMBL document CHEMBL3797053, “2-Alkoxy-3-(sulfonylarylaminomethylene)-chroman-4-ones as potent and selective inhibitors of ectonucleotidases” (Eur J Med Chem, 2016).
pIC50, pKi: −log10 of the molar value. The source made the active and inactive calls. The rule behind the calls is not given here.

Columns and labels:
[1] = molecular target: T1, 5'-nucleotidase (Rattus norvegicus, UniProt P21588); test: Inhibition of rat Ecto-5'-nucleotidase transfected in COS7 cells preincubated for 10 mins followed by AMP addition measured after 10 mins; type: cell-based, COS-7
T1 sequence (P21588 whole entry): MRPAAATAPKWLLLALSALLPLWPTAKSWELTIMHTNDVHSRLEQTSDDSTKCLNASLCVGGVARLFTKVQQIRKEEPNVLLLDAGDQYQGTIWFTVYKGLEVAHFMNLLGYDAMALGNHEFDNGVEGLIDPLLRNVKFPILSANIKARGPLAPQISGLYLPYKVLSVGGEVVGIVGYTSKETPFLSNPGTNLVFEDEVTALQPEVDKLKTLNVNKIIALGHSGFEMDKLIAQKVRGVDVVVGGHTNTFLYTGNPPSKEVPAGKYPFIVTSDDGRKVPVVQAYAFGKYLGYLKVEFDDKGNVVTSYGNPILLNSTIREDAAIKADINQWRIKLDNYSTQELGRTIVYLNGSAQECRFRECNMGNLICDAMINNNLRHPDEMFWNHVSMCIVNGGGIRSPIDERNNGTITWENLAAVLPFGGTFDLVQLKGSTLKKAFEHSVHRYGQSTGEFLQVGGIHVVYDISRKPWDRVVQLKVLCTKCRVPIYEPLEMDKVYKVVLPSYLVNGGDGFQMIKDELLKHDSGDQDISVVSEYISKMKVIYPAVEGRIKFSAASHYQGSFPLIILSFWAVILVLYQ

[2] = molecular target: T2, 5'-nucleotidase (Rattus norvegicus) (UniProt P21588); conditions: COS-7, 0.5 to 2 uM
T2 sequence (whole entry): T1 sequence (P21588 whole entry)
Description: Uncompetitive inhibition of rat Ecto-5'-nucleotidase transfected in COS7 cells at 0.5 to 2 uM preincubated for 10 mins followed by AMP addition measured after 10 mins by double-reciprocal plot analysis

pIC50 [1]: 6.23
pKi [1]: 7.57
inhibition [2]: Active
SMILES: CCOC1Oc2c(Br)cc(Br)cc2C(=O)/C1=C\Nc1cccc(S(N)(=O)=O)c1 (racemic)
